Structures are written as SMILES.

In the assay the test system is entorhinal cortex (EC) of aMCI subjects. The assay is described as follows: fMRI activity in entorhinal cortex during lure stimuli correctly identified as similar. Conditions: 125 mg twice a day for two weeks vs placebo. The format is in vivo, human. Here is the method:
A within-subjects trial of 8 weeks duration, involving 17 amnestic MCI (aMCI) subjects and 17 age-matched controls with a low dose treatment of levetiracetam is conducted. During the course of the study, each aMCI subject receives both drug and placebo treatments separately in two periods of two weeks each, with the order of treatments among different aMCI subjects being counterbalanced (see FIG. 7). Age-matched control subjects that are treated with placebo serve as a further control. Cognitive testing and fMRI imaging data are obtained from the subjects after each two week period of drug/placebo treatment. As described above, the drug treatment period is the two weeks preceding Visit 1 or 2 (with the two week period preceding the other Visit being the placebo phase). […] Imaging data are obtained through high-resolution methods developed in the Stark laboratory. Data are collected on a Phillips 3 Tesla scanner (Eindhoven, The Netherlands) equipped with an 8-channel SENSE (Sensitivity Encoding) head coil, located at the F.M. Kirby Research Center for Functional Brain Imaging at the Kennedy Krieger Institute (Baltimore, Md.). […] Group data are analyzed using a two-way Analysis of Variance (ANOVA) with trial types and group as fixed factors, and subject as a random factor nested within group. […]

With `CC[C@@H](C(N)=O)N1CCCC1=O` [levetiracetam, (2S)-2-(2-oxopyrrolidin-1-yl) butanamide], the “EC activity during memory judgments (fMRI)” value is “normalizes activity”.
